Where two headings read alike, the source gives them in different places. Blank lines part the entries; values can stand above or below the compound they belong to.
How the values were obtained:
[1] = format: in vivo, human; settings: atorvastatin 40 mg for five days, CGC/CGC, CGC/TTT
[2] = both, human, in vivo, po, 100 mg
[3] = mainly through active tubular secretion; cited from earlier work
[4] = single 600 mg dose of cyclosporine; cited from earlier work
clinical = settings: both, human, in vivo, 100 mg; for AUC(0-inf): AUC0-∞; for CL renal: CLR; for half-life: t1/2
[5] = atorvastatin 80 mg; cited from earlier work
[6] = simvastatin 40 mg co-administered; cited from earlier work
[7] = simvastatin 80 mg; cited from earlier work

SMILES: CC(C)c1c(C(=O)Nc2ccccc2O)c(-c2ccccc2)c(-c2ccc(F)cc2)n1CCC1CC(O)CC(=O)O1 (stereo not drawn) [2-hydroxyatorvastatin lactone]
influence of ABCB1 diplotype on pharmacokinetic parameters [1]: not significantly affected

SMILES: CC(C)c1c(C(=O)Nc2ccccc2O)c(-c2ccccc2)c(-c2ccc(F)cc2)n1CCC(O)CC(O)CC(=O)O (stereo not drawn) [2-hydroxyatorvastatin]
influence of ABCB1 diplotype on pharmacokinetic parameters [1]: not significantly affected

SMILES: Cn1c(=O)cc(N2CCC[C@@H](N)C2)n(Cc2ccccc2C#N)c1=O [alogliptin]
effect of atorvastatin on multiple-dose pharmacokinetics [5]: did not alter

SMILES: N#C[C@@H]1C[C@@H]2C[C@@H]2N1C(=O)[C@@H](N)C12CC3CC(CC(O)(C3)C1)C2 [saxagliptin]
increase of AUC by simvastatin [6]: 12%

SMILES: N#C[C@@H]1CCCN1C(=O)CNC12CC3CC(CC(O)(C3)C1)C2 [vildagliptin]
effect of simvastatin on multiple-dose pharmacokinetics [7]: did not alter

Second part, led by results:

influence of ABCB1 diplotype on pharmacokinetic parameters [1]: not significantly affected
SMILES: CC(C)c1c(C(=O)Nc2ccc(O)cc2)c(-c2ccccc2)c(-c2ccc(F)cc2)n1CCC1CC(O)CC(=O)O1 (stereo not drawn) [4-hydroxyatorvastatin lactone]

influence of ABCB1 diplotype on pharmacokinetic parameters [1]: not significantly affected
SMILES: CC(C)c1c(C(=O)Nc2ccc(O)cc2)c(-c2ccccc2)c(-c2ccc(F)cc2)n1CC[C@@H](O)C[C@@H](O)CC(=O)O [4-hydroxyatorvastatin]

influence of ABCB1 diplotype on pharmacokinetic parameters [1]: did not differ significantly
SMILES: CC(C)c1c(C(=O)Nc2ccccc2)c(-c2ccccc2)c(-c2ccc(F)cc2)n1CC[C@@H]1C[C@@H](O)CC(=O)O1 [Atorvastatin lactone, atorvastatin lactone]

Cmax [2]: 438 ± 152 ng/mL
AUC(0-inf) (clinical): 3220 ng·h/mL
CL renal (clinical): 254 mL/min
Cmax (clinical): 399 ng/mL
half-life (clinical): 7.4 ± 2.5 h
AUC(0-t) (clinical; po, AUC0-24): 3230 ± 1220 ng·h/mL
AUC(0-inf) (clinical; po): 3640 ± 1440 ng·h/mL
CL renal (clinical; po): 254 ± 176 mL/min
Cmax (clinical; po): 454 ± 180 ng/mL
half-life (clinical; po): 7.3 ± 3 h
SMILES: N[C@@H](CC(=O)N1CCn2c(nnc2C(F)(F)F)C1)Cc1cc(F)c(F)cc1F [Sitagliptin, sitagliptin]
drug excreted unchanged in the urine [3]: about 80%
effect of cyclosporine on Cmax [4]: modestly increased
effect of cyclosporine on overall plasma exposure [4]: did not have a significant effect

Source: publication PMC3676426 (European journal of clinical pharmacology, 2013)
